Reference: patent US7300933B2, “Diazabicyclic biaryl derivatives” (Neurosearch A/S, priority 2002, dated 2007)
Structures can show the parent of a compound that is named as a salt.

Key:
serotonin transporter = biological target: T1, serotonin transporter (Rattus norvegicus, UniProt P31652); assay: In vitro inhibition of 3H-5-hydroxytryptamine uptake in cortical synaptosomes; type: biochemical; settings: 3H-5-HT 1 nM, 30 minutes at 37° C.
T1 construct: Cerebral cortices from male Wistar rats (150-200 g) are homogenized; from tissue; host or cells: rat cerebral cortex synaptosomes (P2 pellet)
Method: In vitro Inhibition of ^3H-5-Hydroxytryptamine Uptake in Cortical Synaptosomes
Serotonin transporters/uptake sites on nerve terminals presumably function to terminate neuronal signaling by removing serotonin from the synaptic cleft. The activity of the serotonin transporter integral protein can be measured in vitro by synaptosomal uptake of ^3H-5-hydroxytryptamine (5-HT, serotonin).
Preparations are performed at 0-4° C. Cerebral cortices from male Wistar rats (150-200 g) are homogenized for 5-10 seconds in 100 volumes of ice-cold 0.32 M sucrose containing 1 mM pargyline, using a motor driven teflon pestle in a glass homogenizing vessel. Monoamine oxidase activity is inhibited in the presence of pargyline.
The homogenate is subjected to centrifugation at 1000×g for 10 minutes. The resulting supernatant is then centrifuged at 27,000×g for 50 minutes and the supernatant is discarded. […]
Aliquots of 4.0 ml tissue suspension are added to 100 μl of test solution and 100 μl of ^3H-5-HT (1 nM, final concentration), mixed and incubated for 30 minutes at 37° C. Non-specific uptake is determined using Citalopram (1 μM, final concentration, available from Lundbeck, Denmark). […]
The amount of radioactivity on the filters is determined by conventional liquid scintillation counting. Specific uptake is calculated as the difference between total uptake and non-specific uptake. […]

[1] = biological target: T2, α7-subtype of nicotinic receptors (Rattus norvegicus, UniProt Q05941); assay: In vitro inhibition of 3H-α-bungarotoxine binding in rat brain; settings: rat cerebral cortex homogenate; 3H-α-bungarotoxine 2 nM; 2 hours at 37° C.
T2 construct: Cerebral cortices from male Wistar rats (150-250 g) are homogenised; from tissue; host or cells: rat cerebral cortex membrane homogenate
T2 sequence (Q05941 23-502): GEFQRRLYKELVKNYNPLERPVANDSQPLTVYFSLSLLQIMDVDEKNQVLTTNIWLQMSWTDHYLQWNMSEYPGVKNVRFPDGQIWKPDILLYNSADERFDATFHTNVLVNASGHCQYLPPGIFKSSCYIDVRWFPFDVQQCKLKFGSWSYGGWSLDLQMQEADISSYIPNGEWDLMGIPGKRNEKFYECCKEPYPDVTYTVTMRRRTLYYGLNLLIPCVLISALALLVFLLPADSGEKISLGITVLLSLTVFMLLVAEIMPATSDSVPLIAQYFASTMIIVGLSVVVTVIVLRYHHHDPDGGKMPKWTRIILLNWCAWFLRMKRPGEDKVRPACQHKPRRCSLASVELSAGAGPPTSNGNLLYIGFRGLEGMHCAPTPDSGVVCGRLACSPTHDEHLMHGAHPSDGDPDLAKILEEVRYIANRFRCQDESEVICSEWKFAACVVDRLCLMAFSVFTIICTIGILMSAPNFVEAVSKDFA

T1 sequence (P31652 whole entry): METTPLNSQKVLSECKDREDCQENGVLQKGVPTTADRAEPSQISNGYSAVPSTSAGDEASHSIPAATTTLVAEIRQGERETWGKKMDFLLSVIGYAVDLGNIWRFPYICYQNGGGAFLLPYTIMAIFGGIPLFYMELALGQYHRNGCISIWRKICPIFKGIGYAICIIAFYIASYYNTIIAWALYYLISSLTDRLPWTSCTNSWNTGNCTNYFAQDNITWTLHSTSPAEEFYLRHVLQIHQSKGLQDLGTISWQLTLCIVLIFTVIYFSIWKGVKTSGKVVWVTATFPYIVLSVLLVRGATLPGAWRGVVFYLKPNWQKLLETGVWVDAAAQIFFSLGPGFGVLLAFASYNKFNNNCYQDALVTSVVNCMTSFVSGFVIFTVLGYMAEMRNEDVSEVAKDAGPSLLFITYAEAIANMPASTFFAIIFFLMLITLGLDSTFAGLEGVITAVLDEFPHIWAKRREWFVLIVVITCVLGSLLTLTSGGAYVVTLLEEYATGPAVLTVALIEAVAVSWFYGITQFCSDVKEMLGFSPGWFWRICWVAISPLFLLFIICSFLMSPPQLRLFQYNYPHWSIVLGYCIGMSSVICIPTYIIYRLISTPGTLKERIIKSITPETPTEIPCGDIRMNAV

Q: With `c1cc(-c2ccc(N3C[C@@H]4C[C@H]3CN4)nn2)cs1` [Compound 1A, 2-[6-(3-Thienyl)-3-pyridazinyl]-(1S,4S)-2,5-diazabicyclo-[2.2.1]-heptane fumaric acid salt] as the compound, how does the IC50 (serotonin transporter) read?
A: 510 nM

Q: How did the IC50 [1] turn out when `CN1C[C@@H]2C[C@H]1CN2c1ccc(-c2ccsc2)nn1` [Compound 1B, 5-Methyl-2-[6-(3-thienyl)-3-pyridazinyl]-(1S,4S)-2,5-diazabicyclo-[2.2.1]-heptane] was run?
A: 200 nM

Q: How did the IC50 (serotonin transporter) turn out when `c1cc(-c2cnc(N3C[C@@H]4C[C@H]3CN4)cn2)cs1` [Compound 1H, 2-[5-(3-Thienyl)-2-pyrazinyl]-(1S,4S)-2,5-diazabicyclo-[2.2.1]-heptane fumaric acid salt] was run?
A: 21 nM

Q: And the IC50 [1]?
A: 260 nM
